Values after ≈ are worked out from the molar mass of the structure shown. Like-named read-outs stand apart in the source and are kept apart here.
Tests used:
[1] = system: Panonychus citri Adult female mite; assay: Oviposition inhibitory activity determination trial; format: in vivo; details: 144 h, read-out: 6-day oviposition inhibition rate; for inhibition at 1 µg/mL: trial concentration 1 mg/L; for inhibition at 5 µg/mL: trial concentration 5 mg/L
Procedure: (§1) Oviposition inhibitory activity determination trial: A mother solution of the technical material with a mass concentration of 1 wt % was prepared with acetone for later use, and diluted with deionized water comprising 0.1 wt % Tween 80 to a series of trial concentrations. Fresh leaves of cowpea seedlings were selected and cut into round leaf disks with a diameter of about 5.0 cm. The leaf disks were placed in a plastic Petri dish with filter paper and degreased cotton spread in it. 5 mg/L and 10 mg/L treatment agents were applied to the back of the leaves with cotton swabs. An aqueous solution with the same solvent proportion was used as a control agent. After the agent liquid was naturally evaporated under indoor conditions, about 20 female adult mites aged 3-5 days were inoculated onto each leaf. Each treatment was repeated 5 times, about 100 mites were treated The mites were kept in the same conditions, and observed under a binocular dissecting microscope every 24 h over 6 consecutive days, and the number of laid eggs was recorded for each treatment. After the trial ended, the oviposition inhibition rate was calculated for each treatment.

[2] = system: Tetranychus cinnabarinus Adult female mite; assay: as above; format: in vivo; details: 144 h, read-out: 6-day oviposition inhibition rate; for inhibition at 1 µg/mL: trial concentration 1 mg/L; for inhibition at 5 µg/mL: trial concentration 5 mg/L
Procedure: as §1

[3] = system: Tetranychus urticae Adult female mite; assay: as above; format: in vivo; details: 144 h, read-out: 6-day oviposition inhibition rate; for inhibition at 1 µg/mL: trial concentration 1 mg/L; for inhibition at 5 µg/mL: trial concentration 5 mg/L
Procedure: as §1

[4] = system: Tetranychus viennensis Adult female mite; assay: as above; format: in vivo; details: 144 h, read-out: 6-day oviposition inhibition rate; for inhibition at 1 µg/mL: trial concentration 1 mg/L; for inhibition at 5 µg/mL: trial concentration 5 mg/L
Procedure: as §1

Panonychus citri egg = assay: Mite egg hatching inhibitory activity (toxicity to mite eggs), leaf-immersing method; format: in vivo
Procedure: (§2) Mite egg hatching inhibitory activity determination trial: The trial was carried out using a leaf-immersing method. A mother solution of the technical material with a mass concentration of 1 wt % was prepared with acetone for later use, and diluted with deionized water comprising 0.1 wt % Tween 80 to a series of trial concentrations. A 1.2% aqueous agar was poured into a Petri dish with a diameter of 9 cm and cooled for later use. Twenty adult mites were selected and inoculated onto pepper leaves. After 2 days, the adult mites were removed, and the number of mite eggs is counted. The leaves with eggs were immersed in the prepared agent liquid for 10 s and then taken out. The leaves were placed in a Petri dish and moisturized. Each treatment was repeated 3 times. A 0.1 wt % aqueous solution of Tween 80 was used to set up a blank control. These treatments were placed in a biochemical incubator at 24±1° C. After mite eggs of the blank control group hatched, the trial results were checked, and the hatchability rate was calculated.

[5] = system: Tetranychus cinnabarinus egg; assay: as above; format: in vivo
Procedure: as §2

Tetranychus urticae egg = assay: as above; format: in vivo
Procedure: as §2

[6] = system: Tetranychus viennensis egg; assay: as above; format: in vivo
Procedure: as §2

[7] = system: Tetranychus cinnabarinus eggs; assay: Toxicity to Tetranychus cinnabarinus eggs in different areas; format: in vivo; details: for LC50: Tetranychus cinnabarinus
Procedure: as §2
The procedure was the same as above except that the assay for toxicity to Tetranychus cinnabarinus eggs was carried out in different areas.

Diamondback moth egg = assay: Egg hatchability inhibition, leaf-immersing method; format: in vivo, Plutella xylostella (Linnaeus); details: Plutella xylostella, read-out: Hatchability inhibition
Procedure: (§3) Diamondback moth egg: The trial was carried out using a leaf-immersing method. A mother solution of the technical material with a mass concentration of 1 wt % was prepared with acetone, and diluted with deionized water comprising 0.1 wt % Tween 80 to trial concentrations for later use. 1.2% agar was poured into a Petri dish with a diameter of 9 cm and cooled for later use. Two-leaf one-core radish seedlings were placed in the Petri dish when adult diamondback moths were at the great oviposition phase. After 1 day, the […] seedlings were taken out. Radish seedlings with 20-30 eggs in it were selected and immersed in the agent liquid for 10 s and then taken out, and the radish seedlings were placed in a Petri dish and moisturized. Each treatment was repeated 3 times. A 0.1 wt % aqueous solution of Tween 80 was used to set up a blank control, and the blank control was placed in an insect-raising chamber at 25° C. After larvae of the blank control group hatched, the trial results were checked, and the hatchability was calculated.

Maize armyworm egg = assay: Egg hatchability inhibition, leaf-immersing method; format: in vivo, Mythimna separate (Walker); details: read-out: Hatchability inhibition
Procedure: as §3, with “Maize armyworm egg: The” for “Diamondback moth egg: The”, “Two-leaf one-core corn seedlings were” for “Two-leaf one-core radish seedlings were”, “when adult maize armyworms were at” for “when adult diamondback moths were at”, “taken out. Corn seedlings with” for “taken out. Radish seedlings with”, “and the corn seedlings were” for “and the radish seedlings were”

Bemisia tabaci egg = assay: Egg hatching inhibition, potting spray method; format: in vivo; details: read-out: Hatchability inhibition
Procedure: Bemisia tabaci egg: A potting spray method was adopted. A mother solution of the technical material with a mass concentration of 1 wt % was prepared with acetone for later use, and a series of trial concentrations were prepared using a 0.1 wt % aqueous solution of Tween 80. Potted pepper plants growing at the same pace were selected. Every 6 potted pepper plants were counted as a treatment unit and placed in an insect-raising cage. About 500 silverleaf whiteflies were inoculated into each insect-raising cage and normally kept for 2 days, and then the adults were removed. After the agent was prepared, it was used to spray the pepper plants. After the spraying, the plants were placed in the insect-raising cages. A 0.1 wt % aqueous solution of Tween 80 was used to set up a blank control, and the blank control was placed in an insect-raising chamber at 25° C. After […] nymphs of the blank control group hatched, the number of nymphs in each treatment unit was counted, and the hatching inhibition rate was calculated.

Bradysia odoriphaga egg = assay: Egg toxicity, agent liquid quantitative dropwise addition method; format: in vivo; details: 120 h, read-out: Hatchability inhibition
Procedure: Bradysia odoriphaga egg: The trial was carried out by using an agent liquid quantitative dropwise addition method. A mother solution of the technical material with a mass concentration of 1 wt % was prepared with acetone for later use, and a series of trial concentrations were prepared using a 0.1 wt % aqueous solution of Tween 80. Bradysia odoriphaga eggs aged 2 days were picked up. Each treatment unit comprised 20 eggs. The eggs were placed in a Petri dish with a diameter of 9 cm with filter paper spread in it. 600 μL of agent liquid was dropwise added with a pipette onto the eggs, and 600 μL of agent liquid onto the filter paper. Each treatment was repeated 3 times. A 0.1 wt % aqueous solution of Tween 80 was used to set up a blank control, and the blank control was placed in a biochemical incubator at 24±1° C. after treatment. Five days after application, the trial results were checked.

Structure (SMILES) | inhibition at 1 µg/mL [1] [%] | inhibition at 5 µg/mL [1] [%] | inhibition at 1 µg/mL [2] [%] | inhibition at 5 µg/mL [2] [%] | inhibition at 1 µg/mL [3] [%] | inhibition at 5 µg/mL [3] [%] | inhibition at 1 µg/mL [4] [%] | inhibition at 5 µg/mL [4] [%] | LC50 (Panonychus citri egg) [µg/mL] | LC90 (Panonychus citri egg) [µg/mL] | LC50 [5] [µg/mL] | LC90 [5] [µg/mL] | LC50 (Tetranychus urticae egg) [µg/mL] | LC90 (Tetranychus urticae egg) [µg/mL] | LC50 [6] [µg/mL] | LC90 [6] [µg/mL] | LC50 ([7]; area Fangcun, Taian) [µg/mL] | LC50 ([7]; area Jiyang, Jinan) [µg/mL] | LC50 ([7]; area Qihe, Dezhou) [µg/mL] | LC50 ([7]; area Shouguang, Weifang) [µg/mL] | further results
CCOc1cc(C(C)(C)C)ccc1C1COC(c2c(F)cccc2F)=N1 (stereo not shown) [Etoxazole] | 37.6 | 65.4 | 35.7 | 66.8 | 35.9 | 69.2 | 27 | 60.8 | 21.6 (≈ 60 µM) | 123.59 (≈ 344 µM) | 18.5 (≈ 51.6 µM) | 124.23 (≈ 346 µM) | 17.8 (≈ 49.5 µM) | 135.01 (≈ 376 µM) | 17.6 (≈ 49 µM) | 88.51 (≈ 246 µM) | 15.4 (≈ 42.8 µM) | 5.37 (≈ 14.9 µM) | 26 (≈ 72.3 µM) | 7.21 (≈ 20.1 µM) | LC90 ([7]; area Fangcun, Taian): 168.95 µg/mL (≈ 470 µM); LC90 ([7]; area Jiyang, Jinan): 62.95 µg/mL (≈ 175 µM); LC90 ([7]; area Qihe, Dezhou): 162.82 µg/mL (≈ 453 µM); LC90 ([7]; area Shouguang, Weifang): 69.57 µg/mL (≈ 194 µM)
O=C(NC(=O)c1c(F)cccc1F)Nc1cc(Cl)c(OC(F)(F)C(F)C(F)(F)F)cc1Cl (stereo not shown) [Lufenuron] | – | – | – | – | – | – | – | – | – | – | – | – | – | – | – | – | – | – | – | – | inhibition at 5 µg/mL (Diamondback moth egg; Diamondback moth egg, trial concentration 5 mg/L): 59.1%; inhibition at 20 µg/mL (Diamondback moth egg; Diamondback moth egg, trial concentration 20 mg/L): 75%; inhibition at 5 µg/mL (Maize armyworm egg; Maize armyworm egg, trial concentration 5 mg/L): 22.6%; inhibition at 20 µg/mL (Maize armyworm egg; Maize armyworm egg, trial concentration 20 mg/L): 58.4%
CC(COc1ccc(Oc2ccccc2)cc1)Oc1ccccn1 (stereo not shown) [Pyriproxyfen] | – | – | – | – | – | – | – | – | – | – | – | – | – | – | – | – | – | – | – | – | inhibition at 5 µg/mL (Bemisia tabaci egg; Bemisia tabaci egg, trial concentration 5 mg/L): 43.7%; inhibition at 20 µg/mL (Bemisia tabaci egg; Bemisia tabaci egg, trial concentration 20 mg/L): 86.8%; inhibition at 50 µg/mL (Bradysia odoriphaga egg; Bradysia odoriphaga egg, trial concentration 50 mg/L, five days after application): 42.4%; inhibition at 100 µg/mL (Bradysia odoriphaga egg; Bradysia odoriphaga egg, trial concentration 100 mg/L, five days after application): 61.6%
COc1ccccc1C1OC(=O)CC1C(=O)OCCC(F)=C(F)F (stereo not shown) [Trifluenfuronate, trifluenfuronate] | 51 | 77.8 | 47.3 | 77.7 | 50.4 | 77 | 48.7 | 75.3 | 3.28 (≈ 9.53 µM) | 17.97 (≈ 52.2 µM) | 4.12 (≈ 12 µM) | 20.77 (≈ 60.3 µM) | 3.69 (≈ 10.7 µM) | 18.01 (≈ 52.3 µM) | 3.66 (≈ 10.6 µM) | 12.44 (≈ 36.1 µM) | 3.89 (≈ 11.3 µM) | 3.92 (≈ 11.4 µM) | 3.79 (≈ 11 µM) | 4.11 (≈ 11.9 µM) | LC90 ([7]; area Fangcun, Taian): 21.95 µg/mL (≈ 63.8 µM); LC90 ([7]; area Jiyang, Jinan): 20.94 µg/mL (≈ 60.8 µM); LC90 ([7]; area Qihe, Dezhou): 15.62 µg/mL (≈ 45.4 µM); LC90 ([7]; area Shouguang, Weifang): 19.37 µg/mL (≈ 56.3 µM); inhibition at 5 µg/mL (Bemisia tabaci egg; Bemisia tabaci): 83.3%; inhibition at 20 µg/mL (Bemisia tabaci egg; Bemisia tabaci): 98.7%; inhibition at 5 µg/mL (Bradysia odoriphaga egg; Bradysia odoriphaga): 81.3%; inhibition at 20 µg/mL (Bradysia odoriphaga egg; Bradysia odoriphaga): 95.3%; inhibition at 5 µg/mL (Diamondback moth egg): 73.6%; inhibition at 20 µg/mL (Diamondback moth egg): 88.3%; inhibition at 5 µg/mL (Maize armyworm egg): 83.7%; inhibition at 20 µg/mL (Maize armyworm egg): 92.3%
